Results taken from US9040691B2, “Hydroxymethylaryl-substituted pyrrolotriazines as ALK1 inhibitors” (BAYER INTELLECTUAL PROPERTY GMBH, priority 2011, dated 2015).
pIC50: −log10 of the molar value.

What was measured:
ALK1 kinase = ALK1 kinase (Homo sapiens (Human), UniProt P37023); assay: ALK1 kinase assay (ProQinase protocol); format: biochemical; conditions: ProQinase radiometric assay, casein, γ-33P-ATP
Method: B-1b. ALK1 Kinase Assay (ProQinase Protocol)
ALK1 (Invitrogen, Carlsbad, Calif., USA) kinase activity was measured at ProQinase GmbH (Freiburg, Germany) in a radiometric assay using γ-^33P-ATP and casein (Sigma, St. Louis, Mo., USA) as substrate in 96-well PerkinElmer FlashPlates™ (Boston, Mass., USA). The compounds were tested at 10 concentrations in the range of 1×10^−4 M to 3×10^−9 M in a total volume of 50 μl with a final DMSO concentration of 1% each. The assay components were mixed in the order: • 20 μl assay buffer (70 mM HEPES-NaOH, pH 7.5, 3 mM MgCl2, 3 mM MnCl2, 2 μM sodium orthovanadate, 1.2 mM DTT); • 5 μl γ-^33P-ATP (1.0 μM in water, approx. 6×10^5 cpm per well); • 5 μl test compound solution (in 10% DMSO); • […] (200 μg/ml, 1.0 μg/50 μl final concentration)/enzyme (4 μg/ml, 20 ng/50 μl=5.5 nM final concentration) solution (1:1 mixture).
The reaction mixtures were incubated at 30° C. for 60 minutes and stopped by adding 50 μl 2% (v/v) phosphoric acid. The plates were aspirated and washed twice with 200 μl 0.9% (w/v) sodium chloride. Incorporation of ^33Pi was determined with a microplate scintillation counter (Microbeta, Wallac). All assays were performed using a BecicmanCoulter/SAGIAN™ Core System.
Median values obtained from unspecific substrate binding of labelled. ATP were set as background level, while median values measured in the absence of any inhibitor were considered to reflect full activity of ALK1 kinase. The background activity (ba) was subtracted from the full activity (fa) value as well as from the values obtained from the test compound containing samples (test compound activity, tea). The residual activity in the latter was calculated as follows: residual activity (%)=100×[(tca−ba)/(fa−ba)]
The residual activities for each concentration and the compound IC50 values were calculated using Quattro Workflow V3.1.0 (Quattro Research GmbH, Munich, Germany). The fitting model for the IC50 determinations was “Sigmoidal response (variable slope)” with parameters “top” fixed at 100% and “bottom” at 0%. The fitting method used was a least-squares fit.

[1] = test system: laser-induced choroidal neovascularisation; assay: Systemic efficacy in the laser-induced choroidal neovascularization (CNV) model; format: in vivo, rat; conditions: Brown-Norway rats, i.p. once daily 50 mg/kg days 0-1 then 20 mg/kg
Method: B-3. Systemic Efficacy in the Laser-Induced Choroidal Neovascularization (CNV) Model
For this purpose, 16 pigmented Brown-Norway rats with no visible sign of ocular defects were selected and randomly divided into two groups of eight animals each. On day 0, the animals were anaesthetized by an intraperitoneal injection (15 mg/kg xylazine and 80 mg/kg ketamine). After instillation of one drop of 0.5% tropicamide to dilate the pupils, choroidal neovascularisation was induced by executing six 75 μm-sized choroidal burns around the optic disc of the right eyes using a 532 nm argon laser photocoagulation at 150 mW for 100 ms. […] The body weight of all animals was recorded before the start and once daily during the study.
An angiography was performed on day 21 using Heidelberg's Retinal Angiograph (HRA). After anaesthesia and pupillary dilation, 10% sodium fluorescein dye was injected subcutaneously, and images were recorded 10 min after dye injection. The vascular leakage of the fluorescein on the angiograms was evaluated by two examiners in a masked fashion and scored with 0 (no leakage) to 3 (strongly stained).
After euthanasia on day 23, the eyes were harvested and fixed in 4% paraformaldehyde solution for 1 hour at room temperature. […] The flat-mounted preparations were examined under a fluorescence microscope (Apotom) at 488 nm excitation wavelength. […]

ALK1 kinase, sequence (P37023 22-503): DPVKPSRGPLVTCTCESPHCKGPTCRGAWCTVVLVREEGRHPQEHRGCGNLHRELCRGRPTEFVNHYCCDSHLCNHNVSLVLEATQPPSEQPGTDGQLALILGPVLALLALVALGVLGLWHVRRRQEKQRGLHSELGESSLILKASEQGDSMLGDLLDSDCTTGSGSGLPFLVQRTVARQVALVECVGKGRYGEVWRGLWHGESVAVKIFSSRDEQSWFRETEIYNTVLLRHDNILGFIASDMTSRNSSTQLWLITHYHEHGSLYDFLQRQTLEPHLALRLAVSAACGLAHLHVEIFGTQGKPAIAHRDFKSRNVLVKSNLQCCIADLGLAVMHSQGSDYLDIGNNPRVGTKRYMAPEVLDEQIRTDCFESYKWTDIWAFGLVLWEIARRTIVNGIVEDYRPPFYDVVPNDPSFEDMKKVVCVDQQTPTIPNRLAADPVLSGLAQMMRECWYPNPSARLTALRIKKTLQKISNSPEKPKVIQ

pIC50 (ALK1 kinase)	Structure (SMILES)	vascular leakage [angiography score] ([1]; angiography day 21, score 0-3)	choroidal neovascularisation lesion volume ([1]; day 23)
8.17	Nc1ncnn2c1c(-c1cc(F)c(CO)c(F)c1)cc2[C@H]1CC[C@H](O)CC1 [Example 7, trans-4-[4-Amino-5-[3,5-difluoro-4-(hydroxymethyl)phenyl]pyrrolo[2,1-f][1,2,4]triazin-7-yl]-cyclohexanol]		
8.52	Nc1ncnn2c([C@@H]3CCCNC3)cc(-c3cc(F)c(CO)c(F)c3)c12 [Example 11, (4-{4-Amino-7-[(3R)-piperidin-3-yl]pyrrolo[2,1-f][1,2,4]triazin-5-yl}-2,6-difluorophenyl)methanol]	0.68 ± 0.35 angiography score	3.48 ± 0.40 μm^3 × 100 000
